Values of other authors, collected in patent US20050014837A1, “Method for treating ocular hypertension and glaucoma” (priority 2001, published 2005).

Details: 0.01% solution; 5, 10 and 20 μL

## O=C1OC2(c3ccc(O)cc3Oc3cc(O)ccc32)c2ccccc21 [fluorescein]
  initial concentration in meniscus relative to the concentration of the administered fluorescein: 36-45%
